Data from US8748369B2, “Use of targeted nitroxide agents in bone healing” (University of Pittsburgh-Of the Commonwealth System of …, priority 2009, dated 2014).
Where a SMILES comes first, the peptide text is derived from it. [ ]: non-standard residue; d: D form. The star is where a group is joined. NH(TEMPO-4-yl) = CC1(C)CC(N*)CC(C)(C)N1[O]; Orn = NCCC[C@H](N)C(=O)O; Cbz = O=C(OCc1ccccc1)*; Boc = CC(C)(C)OC(=O)*

What was measured:
NOD/SCID mice = assay: Proposed: human CD34+ cord blood stem cell seeding into irradiated limbs of NOD/SCID mice; conditions: mouse, in vivo
Source text: Selection and optimization of a GS-nitroxide JP4-039 therapy to enhance human CD34+ cord blood multilineage hematopoietic stem cell progenitor cell seeding into irradiated limbs of NOD/SCID mice that have been prepared by engraftment of human marrow stromal cells.
2. Experiments using the optimal seeding protocol for human KM101 cells into irradiated NOD/SCID mice (anticipated to be those mice receiving MnSOD-PL prior to irradiation, and then injection with KM101-MnSOD/ds-red, supplemented with JP4-039 daily). Mice can then receive intravenous injection of 1×10^5 or 1×10^6 CD34+ LIN− cells from human umbilical cord blood origin. Control cells may be CD34+ LIN+ (differentiated progenitor) cells 10^5 or 10^6 per injection. Groups of 12 mice. These experiments may be carried out in two schedules. • a. […]
In these experiments, mice can be followed and tested at serial time points out to two months after cord blood stem cell transplantation. The percent of human peripheral blood hematopoietic cells can be scored in weekly peripheral blood samples and number of cells forming CFU-GEMM colonies can be tested in explanted bones from sacrificed mice. […]
Experiments in vitro supplementing in co-cultivation culture media the drug JP4-039 daily. […] Stromal cell cultures may be irradiated, cord blood cells added, and cultures scored as above. […]

mouse embryonic cells = assay: Gamma irradiation induced superoxide generation and cardiolipin oxidation; format: cell-based; conditions: 10 Gy, 20 μM
Protocol: Oxidation-dependent fluorogenic dye, DHE was used to evaluate intracellular production of superoxide radicals. DHE is cell permeable and, in the presence of superoxide, is oxidized to fluorescent ethidium which intercalates into DNA. Briefly, cells were treated with 5 μM DHE for 30 min at the end of incubation. Cells were then collected by trypsinization and resuspended in PBS. The fluorescence of ethidium was measured using a FACScan flow cytometer (Becton-Dickinson, Rutherford, N.J.) supplied with the CellQuest software. Mean fluorescence intensity from 10,000 cells was acquired using a 585/42 nm bandpass filter.
CL hydroperoxides were determined by fluorescence HPLC of products formed in MP-11-catalyzed reaction with a fluorogenic substrate, Amplex Red. […] Shimadzu LC-100AT vp HPLC system equipped with fluorescence detector (RF-10Axl, Ex/Em=560/590 nm) and autosampler (SIL-10AD vp) were used for the analysis of products separated by HPLC (Eclipse XDB-C18 column, 5 μm, 150×4.6 mm) Mobile phase was composed of NaH2PO4 (25 mM, pH 7.0)/methanol (60:40 v/v).
(A) superoxide generation. […] Ethidium fluorescence was analyzed using a FACScan flow cytometer supplied with CellQuest software. Mean fluorescence intensity from 10,000 cells was acquired using a 585-nm bandpass filter. […] Cardiolipin hydroperoxides were determined using a fluorescent HPLC-based Amplex Red assay. […]

SMILES	hematopoietic cell survival and CFU-GEMM numbers (NOD/SCID mice)	gamma irradiation induced cardiolipin peroxidation (mouse embryonic cells)	gamma irradiation induced superoxide generation (mouse embryonic cells; 10-min before or 1-h after irradiation)
CC(C)C[C@@H](/C=C/CC(=O)NC1CC(C)(C)N([O])C(C)(C)C1)NC(=O)OC(C)(C)C [JP4-039, (S,E)-5-(tert-Butoxycarbonylamino)-7-methyloct-3-enoic acid-TEMPO]	further enhance hematopoietic cell survival and increase CFU-GEMM in numbers		
CC(C)C[C@H](NC(=O)OC(C)(C)C)C(=O)N[C@H](Cc1ccccc1)C(=O)N1CCC[C@H]1C(=O)N[C@H](C(=O)N[C@@H](CCCNC(=O)OCc1ccccc1)C(=O)NC1CC(C)(C)N([O])C(C)(C)C1)C(C)C [XJB-5-125] (Boc-L[dF]PV[Orn](Cbz)-{NH(TEMPO-4-yl)})		protects	protects
